The values below are quoted from earlier work in article PMC11054638, “Transport of Non-Steroidal Anti-Inflammatory Drugs across an Oral Mucosa Epithelium In Vitro Model” (Pharmaceutics, 2024).

The subject of data set [1] is COX-2. More on the design: method as in PMID 10866999. The following applies: human cell lines ref 59; cited from earlier work.
Details of data set [2]: method as in PMID 15157608. Particulars: cited from earlier work.
Data set [3] deals with COX-2. Details: method as in PMID 16678543. Particulars: 48 h post-surgery, compared to the placebo group ref 62; cited from earlier work.

`O=C(O)c1ccccc1Nc1cccc(C(F)(F)F)c1` [flufenamic acid]: the COX-2 expression result in the data set on COX-2 [1] is “NF-κB-independent upregulation of COX-2”.

With `C[C@]12CCC(=O)C=C1CC[C@@H]1[C@@H]2[C@@H](O)C[C@@]2(C)[C@H]1CC[C@]2(O)C(=O)CO` [hydrocortisone], the biological half-life in data set [2] is 8–12 h.

Take `CS(=O)(=O)c1ccc(C2=C(c3ccccc3)C(=O)OC2)cc1` [rofecoxib]: in the data set with COX-2 [3], the “COX-2 expression in the oral mucosa” value is reported as “induced COX-2 expression”.
